In the C3SDB collision cross section collection:
“And” between values parts separate entries of the source, which are not always exact repeats. Identical values can stand only once.

Legend:
[1] = [M+H]+; instrument: TW
[2] = instrument: DT, single field, calibrated with Agilent tune mix (Agilent)
[3] = instrument: DT, single field
[4] = [M+NH4]+; instrument: DT; single field, calibrated with Agilent tune mix (Agilent)
[5] = [M+Na]+; instrument: DT; stepped-field

SMILES	collision cross section (N2) ([3]; [M+NH4]+)	collision cross section (N2) [4] [Å²]	collision cross section (N2) ([3]; [M+Na]+)	other results
C[C@]12CCC(=O)C=C1CC[C@@H]1[C@@H]2C(=O)C[C@@]2(C)[C@H]1CC[C@]2(O)C(=O)CO [Cortisone]				collision cross section (N2) [1]: 184 Å²; collision cross section (N2) ([2]; [M+H]+): 188.6 Å²; collision cross section (N2) ([2]; [M-H2O-H]-): 180.07 Å²
CCCCC/C=C\C/C=C\CCCCCCCC(=O)O[C@@H](CO)COC(=O)CCCCCCCCCCCC [DG(31:2)]	249.72 Å²			
CCCCCCCC/C=C\CCCCCCCCCC(=O)O[C@@H](CO)COC(=O)CCCCCCCCCCC [DG(32:1)]	255.8 Å²			
CCCC/C=C\C/C=C\CCCCCCCC(=O)O[C@@H](CO)COC(=O)CCCCCCCCCCCCCCCC [DG(34:2)]	257.59 Å² and 259.54 Å²	257.9		
CCCCC/C=C\C/C=C\C/C=C\CCCCCCCCC(=O)O[C@@H](CO)COC(=O)CCCCCCCCCCCCC [DG(36:3)]	261.08 Å²			
CCCCC/C=C\C/C=C\C/C=C\CCCCC(=O)OC[C@H](CO)OC(=O)CCCCCCC/C=C\CCCCCCCC [DG(36:4)]	257.21 Å²			
CCCC/C=C\CCCCCCCC(=O)OC[C@H](CO)OC(=O)CCCCC/C=C\C/C=C\C/C=C\C/C=C\CCCCC [DG(36:5)]	254.91 Å²			
CCCCC/C=C\C/C=C\C/C=C\C/C=C\CCCC(=O)O[C@@H](CO)COC(=O)CCCC/C=C\C/C=C\C/C=C\CCCCC [DG(38:7)]	259.31 Å²			
CC/C=C\C/C=C\C/C=C\C/C=C\C/C=C\CCCCCC(=O)O[C@@H](CO)COC(=O)CCCC/C=C\C/C=C\C/C=C\CCCCC [DG(40:8)]	266.74 Å²			
CCCCCCCCCCCCC=CCC=CCC=CCC=CCC(=O)N[C@@H](COP(=O)([O-])OCC[N+](C)(C)C)[C@H](O)CC=CCCCCCCCCCCCC [SM(43:5)]				collision cross section (N2) ([3]; [M+H]+): 301.97 Å²
Cc1nnc(NS(=O)(=O)c2ccc(N)cc2)s1 [Sulfamethizole]				collision cross section (N2) [1]: 152.2 Å²
Cc1nn(-c2cc(NS(C)(=O)=O)c(Cl)cc2Cl)c(=O)n1C(F)F [Sulfentrazone]				collision cross section (N2) [1]: 173.63 Å²
Cc1noc(NS(=O)(=O)c2ccc(N)cc2)c1C [Sulfisoxazole]				collision cross section (N2) [1]: 157.4 Å²
CCCCCC/C=C\CCCCCCCC(=O)OC[C@@H](COC(=O)CCCCCCCCCCC)OC(=O)CCCCCCCCCCC [TG(40:1)]	282.64 Å² and 284.9 Å²		280.45 Å² and 283.77 Å²	
CCCCCCCC/C=C\CCCCCCCC(=O)OC[C@@H](COC(=O)CCCCCCCCCCC)OC(=O)CCCCCCCCCCC [TG(42:1)]	289.72 Å² and 292.07 Å² and 292.03 Å²	288.5	288.53 Å² and 291.03 Å²	
CCCCCCCCCC/C=C\CCCCCCCCCC(=O)OC[C@@H](COC(=O)CCCCCCCCCCC)OC(=O)CCCCCCCCCCC [TG(46:1)]			302.27 Å² and 304.44 Å²	
CCCCCCC/C=C\CCCCCCCC(=O)OC[C@@H](COC(=O)CCCCCCCCCCC)OC(=O)CCCCCCC/C=C\CCCCCCC [TG(46:2)]	300.67 Å² and 303.01 Å²	300.4	299.74 Å² and 302.02 Å²	
CCCCCCCCCC/C=C\CCCCCCCCCC(=O)OC[C@@H](COC(=O)CCCCCCCCCCCC)OC(=O)CCCCCCCCCCCC [TG(48:1)]		310.9	308.88 Å² and 310.77 Å²	
CCCCC/C=C\CCCCCCCC(=O)OC[C@H](COC(=O)CCCCCCC/C=C\CCCCCCCCC)OC(=O)CCCCCCC/C=C\CCCCC [TG(49:3)]	308.33 Å² and 309.79 Å² and 313.23 Å²	307.8	308.93 Å²	
CCCCCCCCCC/C=C\CCCCCCCCCC(=O)OC[C@@H](COC(=O)CCCCCCCCCCCCC)OC(=O)CCCCCCCCCCCCC [TG(50:1)]			315.05 Å² and 316.8 Å²	
CCCCCCCCC/C=C\CCCCCCCC(=O)OC[C@@H](COC(=O)CCCCCCCCCCCCCCC)OC(=O)CCCCCCCCCCCCCCC [TG(51:1)]			317.97 Å² and 320.06 Å²	
CCCCCCCCCCCCCCCCCCCC(=O)OC[C@@H](COC(=O)CCCCCCCCCCC)OC(=O)CCCCCCCCCCCCCCCCCCC [TG(52:0)]	323.2 Å² and 325.31 Å²	323.4	323.38 Å²	
CCCC/C=C\CCCCCCCC(=O)OC[C@H](COC(=O)CCCCCCC/C=C\CCCCCCCCC)OC(=O)CCCCCCC/C=C\CCCCCCCCC [TG(52:3)]	318.16 Å² and 320.59 Å² and 322.8 Å²	320.2	317.01 Å² and 319.26 Å²	
CCCCCCCC/C=C\CCCCCCCCCC(=O)OC[C@@H](COC(=O)CCCCCCCCCCCC)OC(=O)CCCCCCCCC/C=C\CCCCCCCC [TG(53:2)]		323.6	321.52 Å² and 323.87 Å²	

SMILES	collision cross section (N2) ([3]; [M+NH4]+)	collision cross section (N2) [4] [Å²]	collision cross section (N2) ([3]; [M+Na]+)	other results
CCCCC/C=C\CCCCCCCC(=O)OC[C@H](COC(=O)CCCCCCC/C=C\CCCCCCCCC)OC(=O)CCCCCCC/C=C\CCCCCCCCC [TG(53:3)]			319.33 Å² and 321.38 Å²	
CCCCC/C=C\C/C=C\C/C=C\C/C=C\CCCCCC(=O)OC[C@@H](COC(=O)CCCCCCCCCCCCC)OC(=O)CCCCCCC/C=C\CCCCCCC [TG(53:5)]	317.8 Å² and 320.46 Å² and 322.68 Å²	317.4		
CCCC/C=C\CCCCCCCC(=O)OC[C@H](COC(=O)CCCCCCCCCCCCCCCCCCC)OC(=O)CCCCCCCCCCCCCCCCCCC [TG(54:1)]		328.4	325.86 Å² and 328.61 Å²	
CCCC/C=C\CCCCCCCC(=O)OC[C@H](COC(=O)CCCCCCCCC/C=C\CCCCCCCC)OC(=O)CCCCCCCCC/C=C\CCCCCCCC [TG(54:3)]	324.13 Å² and 326.41 Å² and 329.85 Å²	326.5	322.77 Å² and 324.86 Å²	
CC/C=C\C/C=C\C/C=C\C/C=C\CCCCC(=O)O[C@H](COC(=O)CCCCCCC/C=C\CCCCCCC)COC(=O)CCCCCCC/C=C\CCCCCCCCC [TG(54:6)]		319.9	316.05 Å² and 318.28 Å²	
CCCCC/C=C\CCCCCCCC(=O)OC[C@H](COC(=O)CCCCCCCCCCCCCCCCCCC)OC(=O)CCCCCCCCCCCCCCCCCCC [TG(55:1)]	334.9 Å² and 337.31 Å² and 332.94 Å²			
CCCCC/C=C\CCCCCCCC(=O)OC[C@H](COC(=O)CCCCCCCCC/C=C\CCCCCCCC)OC(=O)CCCCCCCCC/C=C\CCCCCCCC [TG(55:3)]	330.49 Å² and 333.23 Å² and 328.28 Å²	327.5		
CCCCC/C=C\C/C=C\C/C=C\C/C=C\CCCCCC(=O)OC[C@@H](COC(=O)CCCCCCCCCCC)OC(=O)CCCCCCCCCCCCCCCCCCCC [TG(55:4)]	328.36 Å² and 330.81 Å² and 326.47 Å²	326		
CCCCCCCCCC/C=C\CCCCCCCCCC(=O)OC[C@@H](COC(=O)CCCCCCCCCCC)OC(=O)CCCCCCCCC/C=C\CCCCCCCCCC [TG(56:2)]		332.8	332.96 Å²	
CC/C=C\C/C=C\C/C=C\CCCCCCCC(=O)O[C@@H](COC(=O)CCC/C=C\C/C=C\C/C=C\C/C=C\CCCCC)COC(=O)CCCCCCC/C=C\C/C=C\CCCCC [TG(56:9)]	321.77 Å²			
CCCCCCCCC/C=C\CCCCCCCC(=O)OC[C@@H](COC(=O)CCCCCCCCCCCCCCCCCC)OC(=O)CCCCCCCCCCCCCCCCCC [TG(57:1)]	340.07 Å² and 342.55 Å²			
CCCC/C=C\CCCCCCCC(=O)OC[C@H](COC(=O)CCCCCCCCCCCCCCCCCCCCC)OC(=O)CCCCCCCCCCCCCCCCCCCCC [TG(58:1)]	342.62 Å² and 345.63 Å² and 341.8 Å²			
CCCCC/C=C\C/C=C\C/C=C\CCCCCCCCC(=O)OC[C@@H](COC(=O)CCCCCCCCCCCCCCCCC)OC(=O)CCCCCCC/C=C\CCCCCCCCC [TG(59:4)]	340.53 Å² and 343 Å²			
CCCCC/C=C\C/C=C\C/C=C\C/C=C\CCCC(=O)O[C@@H](COC(=O)CCCCCCCCCCC/C=C\C/C=C\CCCCC)COC(=O)CCCCCCCCCCCCCCCC [TG(59:6)]	339.13 Å²			
CCc1nn(C)c(C(=O)NCc2ccc(C(C)(C)C)cc2)c1Cl [Tebufenpyrad]				collision cross section (N2) [1]: 191.25 Å²
CN(C)[C@@H]1C(O)=C(C(N)=O)C(=O)[C@@]2(O)C(O)=C3C(=O)c4c(O)cccc4[C@@](C)(O)[C@H]3C[C@@H]12 [Tetracycline]				collision cross section (N2) [1]: 197.3 Å²
c1ccc2[nH]c(-c3cscn3)nc2c1 [Thiabendazole]				collision cross section (N2) [5]: 164.17 Å²; collision cross section (N2) [1]: 136.19 Å²
Cc1c(Cl)cccc1Nc1ccccc1C(=O)O [Tolfenamic acid]				collision cross section (N2) [1]: 153.7 Å²
Cc1ccc(C(=O)c2ccc(CC(=O)O)n2C)cc1 [Tolmetin]				collision cross section (N2) [1]: 156.7 Å²
COP(=O)(OC)C(O)C(Cl)(Cl)Cl (configuration not stated) [Trichlorfon]				collision cross section (N2) [1]: 136.12 Å²
O=C(NC(=O)c1ccccc1Cl)Nc1ccc(OC(F)(F)F)cc1 [Triflumuron]				collision cross section (N2) [1]: 169.88 Å²
CC1(C)CC/C(=C\c2ccc(Cl)cc2)C1(O)Cn1cncn1 (configuration not stated) [Triticonazole]				collision cross section (N2) [1]: 179.18 Å²
CC[C@H]1OC(=O)C[C@@H](O)[C@H](C)[C@@H](O[C@@H]2O[C@H](C)[C@@H](O[C@H]3C[C@@](C)(O)[C@@H](O)[C@H](C)O3)[C@H](N(C)C)[C@H]2O)[C@@H](CC=O)C[C@@H](C)C(=O)/C=C/C(C)=C/[C@@H]1CO[C@@H]1O[C@H](C)[C@@H](O)[C@@H](OC)[C@H]1OC [Tylosine]				collision cross section (N2) [1]: 332.4 Å²
